Reference: patent US10730889B2, “Amido spirocyclic amide and sulfonamide derivatives” (Forma TM, LLC, priority 2012, dated 2020)

tested on: A2780 cells; experiment: In-vitro cell proliferation assay (SRB, 72 hours); assay type: cell-based; conditions: Homo sapiens, A2780, 72 h, A2780 cells, 72 hours, SRB; read-out: Cell Proliferation (IC50)

Structure (SMILES)	IC50
O=C(NCC1CC12CCN(C(=O)c1ccccc1Cn1cncn1)CC2)c1cc2ccncc2o1 (stereo not drawn) [Example 250, N-[[6-[2-(1,2,4-triazol-1-ylmethyl)benzoyl]-6-azaspiro[2.5]octan-2-yl]methyl]furo[2,3-c]pyridine-2-carboxamide]	2000 nM
O=C(NCC1CC12CCN(C(=O)c1ccc(Cn3cncn3)cc1)CC2)c1cc2ccncc2o1 (stereo not drawn) [Example 251, N-[[6-[4-(1,2,4-triazol-1-ylmethyl)benzoyl]-6-azaspiro[2.5]octan-2-yl]methyl]furo[2,3-c]pyridine-2-carboxamide]	215 nM
O=C(NCC1CC12CCN(C(=O)c1cccc(Cn3ccnc3)c1)CC2)c1cc2ccncc2o1 (stereo not drawn) [Example 252, N-[[6-[3-(imidazol-1-ylmethyl)benzoyl]-6-azaspiro[2.5]octan-2-yl]methyl]furo[2,3-c]pyridine-2-carboxamide]	344 nM
O=C(NCC1CC12CCN(C(=O)c1ccc(-n3ccnc3)cc1)CC2)c1cc2ccncc2o1 (stereo not drawn) [Example 253, N-[[6-(4-imidazol-1-ylbenzoy)-6-azaspiro[2.5]octan-2-yl]methyl]furo[2,3-c]pyridine-2-carboxamide]	55.4 nM
O=C(NCC1CC12CCN(C(=O)c1ccc(-c3ncn[nH]3)cc1)CC2)c1cc2ccncc2o1 (stereo not drawn) [Example 254, N-[[6-(4-(1H-1,2,4-triazol-5-yl)benzoyl]-6-azaspiro[2.5]octan-2-yl]methyl]furo[2,3-c]pyridine-2-carboxamide]	13 nM
O=C(NCC1CC12CCN(C(=O)c1ccc(-n3ccnc3)nc1)CC2)c1cc2ccncc2o1 (stereo not drawn) [Example 255, N-[[6-(6-imidazol-1-ylpyridine-3-carbonyl)-6-azaspiro[2.5]octan-2-yl]methyl]furo[2,3-c]pyndine-2-carboxamide]	179 nM
O=C(NCC1CC12CCN(C(=O)c1cc(C(F)(F)F)ccn1)CC2)c1cc2ccncc2o1 (stereo not drawn) [Example 256, N-[[6-[4-(trifluoromethyl]pyridine-2-carbonyl]6-azaspiro[2.5]octan-2-yl]methyl]furo[2,3-c]pyridine-2-carboxamide]	596 nM
O=C(NCC1CC12CCN(C(=O)c1ccc(C(F)(F)F)nc1)CC2)c1cc2ccncc2o1 (stereo not drawn) [Example 257, N-[[6-[6-(trifluoromethyl]pyndine-3-carbonyl]-6-azaspiro[2.5]octan-2-yl]methyl]furo[2,3-c]pyridine-2-carboxamide]	2000 nM
O=C1COc2ccc(C(=O)N3CCC4(CC3)CC4CNC(=O)c3cc4ccncc4o3)cc2N1 (stereo not drawn) [Example 258, N-[[6-(3-oxo-4H-1,4-benzoxazine-6-carbonyl)-6-azaspiro[2.5]octan-2-yl]methyl]furo[2,3-c]pyridine-2-carboxamide]	20.3 nM
NS(=O)(=O)c1ccc(C(=O)N2CCC3(CC2)CC3CNC(=O)c2cc3ccncc3o2)cc1 (stereo not drawn) [Example 259, N-[[6-(4-sulfamoylbenzoyl)-6-azaspiro[2.5]octan-2-yl]methyl]furo[2,3-c]pyridine-2-carboxamide]	1200 nM
O=C(NCC1CC12CCN(C(=O)c1ccccc1Cn1ccnc1)CC2)c1cc2ccncc2o1 (stereo not drawn) [Example 260, N-[[6-(2-(imidazol-1-ylmethyl)benzoyl]-6-azaspito[2.5]octan-2-yl]methyl]furo[2,3-c]pyridine-2-carboxamide]	2000 nM
O=C(NCC1CC12CCN(C(=O)c1ccc3nccnc3c1)CC2)c1cc2ccncc2o1 (stereo not drawn) [Example 261, N-[[6-(quinoxaline-6-carbonyl)-6-azaspiro[2.5]octan-2-yl]methyl]furo[2,3-c]pyridine-2-carboxamide]	15.8 nM
O=C(NCC1CC12CCN(C(=O)c1ccc3cnccc3n1)CC2)c1cc2ccncc2o1 (stereo not drawn) [Example 262, N-[[6-(1,6-naphthyridine-2-carbonyl)-6-azaspiro[2.5]octan-2-yl]methyl]furo[2,3-c]pyridine-2-carboxamide]	79.5 nM
CC(=O)Nc1cccc(C(=O)N2CCC3(CC2)CC3CNC(=O)c2cc3ccncc3o2)c1 (stereo not drawn) [Example 264, N-[[6-(3-acetamidobenzoyl)-6-azaspiro[2.5]octan-2-yl]methyl]furo[2,3-c]pyridine-2-carboxamide]	245 nM
CC(=O)Nc1cnccc1C(=O)N1CCC2(CC1)CC2CNC(=O)c1cc2ccncc2o1 (stereo not drawn) [Example 265, N-[[6-(3-acetamidopyridine-4-carbonyl)-6-azaspiro[2.5]octan-2-yl]methyl]furo[2,3-c]pyridine-2-carboxamide]	2000 nM
O=C(NCC1CC12CCN(C(=O)c1ccc3nonc3c1)CC2)c1cc2ccncc2o1 (stereo not drawn) [Example 266, N-[[6-(2,1,3-benzoxadiazole-5-carbonyl)-6-azaspiro[2.5]octan-2-yl]methyl]furo[2,3-c]pyridine-2-carboxamide]	1470 nM
O=C(NCC1CC12CCN(C(=O)c1ccnc3ncccc13)CC2)c1cc2ccncc2o1 (stereo not drawn) [Example 267, N-[[6-(1,8-naphthyridine-4-carbonyl)-6-azaspiro[2.5]octan-2-yl]methyl]furo[2,3-c]pyridine-2-carboxamide]	2000 nM
O=C(NCC1CC12CCN(C(=O)c1cnc3ccccc3n1)CC2)c1cc2ccncc2o1 (stereo not drawn) [Example 269]	16 nM

Structure (SMILES)	IC50
O=C(NCC1CC12CCN(C(=O)c1ccc3cccnc3n1)CC2)c1cc2ccncc2o1 (stereo not drawn) [Example 271, N-[[6-(1,8-naphthyridine-2-carbonyl)-6-azaspiro[2.5]octan-2-yl]methyl]furo[2,3-c]pyridine-2-carboxamide]	139 nM
O=C(NCC1CC12CCN(C(=O)c1ccno1)CC2)c1cc2ccncc2o1 (stereo not drawn) [Example 272, N-[[6-(isoxazole-5-carbonyl)-6-azaspiro[2.5]octan-2-yl]methyl]furo[2,3-c]pyridine-2-carboxamide]	2000 nM
CC(C)CC(=O)N1CCC2(CC1)CC2CNC(=O)c1cc2ccncc2o1 (stereo not drawn) [Example 273, N-[[6-(3-methylbutanoyl)-6-azaspiro[2.5]octan-2-yl]methyl]furo[2,3-c]pyridine-2-carboxamide]	207 nM
CC(C)(C)OC(=O)N1CCC2(CC1)CC2CNC(=O)N1Cc2cn[nH]c2C1 (stereo not drawn) [Example 274, tert-Butyl 2-[(4,6-dihydro-1H-pyrrolo[3,4-c]pyrazole-5-carbonylamino)methyl]-6-azaspiro[2.5]octane-6-carboxylate]	2000 nM
CN1CCC(C)(CC(=O)N2CCC3(CC2)CC3CNC(=O)c2cc3ccncc3o2)CC1 (stereo not drawn) [Example 275, N-([6-[2-(1,4-dimethylpiperidin-4-yl)acetyl]-6-azaspiro[2.5]octan-1-yl]methyl)furo[2,3-c]pyridine-2-carboxamide]	17.7 nM
O=C(NCC1CC12CCN(C(=O)Cc1cccnc1)CC2)c1cc2cnccc2[nH]1 (stereo not drawn) [Example 277, N-[[6-[2-(3-pyridyl)acctyl]-6-azaspiro[2.5]octan-2-yl]methyl]-1H-pyrrolo[3,2-c]pyridine-2-carboxamide]	755 nM
O=C(NCC1CC12CCN(C(=O)Cc1ccncc1)CC2)c1cc2cnccc2[nH]1 (stereo not drawn) [Example 278, N-[[6-[2-(4-pyridyl)acetyl]-6-azaspiro[2.5]octan-2-yl]methyl]-1H-pyrrolo[3,2-c]pyridine-2-carboxamide]	2000 nM
Cn1nnc(-c2ccc(C(=O)N3CCC4(CC3)CC4CNC(=O)c3cc4ccncc4o3)cc2)n1 (stereo not drawn) [Example 280]	6.83 nM
Cc1cc(C)c(C(=O)N2CCC3(CC2)CC3CNC(=O)c2cc3ccncc3o2)cn1 (stereo not drawn) [Example 281, N-[[6-(4,6-dimethylpyridine-3-carbonyl)-6-azaspiro[2.5]octan-2-yl)methyl]furo[2,3-c]pyridine-2-carboxamide]	18.5 nM
Cc1nn(C(C)(C)C)c(C)c1C(=O)N1CCC2(CC1)CC2CNC(=O)c1cc2ccncc2o1 (stereo not drawn) [Example 294, N-[[6-(1-tert-butyl-3,5-dimethyl-pyrazole-4-carbonyl)-6-azaspiro[2.5]octan-2-yl]methyl]furo[2,3-c]pyridine-2-carboxamide]	12.1 nM
Cc1nn(Cc2ccccc2)c(C)c1C(=O)N1CCC2(CC1)CC2CNC(=O)c1cc2ccncc2o1 (stereo not drawn) [Example 295, N-[[6-(1-benzyl-3,5-dimethyl-pyrazole-4-carbonyl)-6-azaspiro[2.5]octan-2-yl]methyl]furo[2,3-c]pyridine-2-carboxamide]	0.944 nM
Cn1nc(C(C)(C)C)cc1C(=O)N1CCC2(CC1)CC2CNC(=O)c1cc2ccncc2o1 (stereo not drawn) [Example 296, N-[[6-(5-tert-butyl-2-methyl-pyrazole-3-carbonyl)-6-azaspiro[2.5]octan-2-yl]methyl]furo[2,3-c]pyridine-2-carboxamide]	10.8 nM
CCn1nccc1C(=O)N1CCC2(CC1)CC2CNC(=O)c1cc2ccncc2o1 (stereo not drawn) [Example 297, N-[[6-(2-ethylpyrazole-3-carbonyl)-6-azaspiro[2.5]octan-2-yl]methyl]furo[2,3-c]pyridine-2-carboxamide]	278 nM
Cc1cnn(C(C)(C)C)c1C(=O)N1CCC2(CC1)CC2CNC(=O)c1cc2ccncc2o1 (stereo not drawn) [Example 298, N-[[6-(2-tert-butyl-4-methyl-pyrazole-3-carbonyl)-6-azaspiro[2.5]octan-2-yl]methyl]furo[2,3-c]pyridine-2-carboxamide]	103 nM
Cc1cnn(C)c1C(=O)N1CCC2(CC1)CC2CNC(=O)c1cc2ccncc2o1 (stereo not drawn) [Example 299, N-[[6-(2,4-dimethylpyrazole-3-carbonyl)-6-azaspiro[2.5]octan-2-yl]methyl]furo[2,3-c]pyridine-2-carboxamide]	249 nM
O=C(NCC1CC12CCN(C(=O)c1n[nH]c3ccccc13)CC2)c1cc2ccncc2o1 (stereo not drawn) [Example 302, N-[[6-(1H-indazole-3-carbonyl)-6-azaspiro[2.5]octan-2-yl]methyl]furo(2,3-c]pyridine-2-carboxamide]	90.3 nM
CC(C)N1CCC(n2cc(C(=O)N3CCC4(CC3)CC4CNC(=O)c3cc4ccncc4o3)cn2)C1 (stereo not drawn) [Example 303, N-[[6-(1-(1-isopropylpyrrolidin-3-yl)pyrazole-4-carbonyl]-6-azaspiro[2.5]octan-2-yl]methyl]furo[2,3-c]pyridine-2-carboxamide]	2000 nM

same assay, conditions: Homo sapiens; A2780 cells, 72 hours, SRB; read-out: Cell Proliferation (IC50)

Structure (SMILES)	IC50
O=C(Cc1ncccn1)N1CCC2(CC1)CC2CNC(=O)N1Cc2ccncc2C1 (stereo not drawn) [Example 286, N-[[6-(2-pyrimidin-2-ylacetyl)-6-azaspiro[2.5]octan-2-yl]methyl]-1,3-dihydropyrrolo[3,4-c]pyridine-2-carboxamide]	27 nM
